Reference: PMC12583827, “Harnessing microbial-derived metabolites in the urinary tract to prevent infection induced catheter encrustation” (Nature Communications, 2025)
“Also recorded” adds a separate entry of the source. Read-outs that look alike come from different tables or passages of the source. Where a SMILES comes first, the peptide text is derived from it.

Legend:
P. mirabilis urease [1] = biological target: T1, P. mirabilis urease (Proteus mirabilis, UniProt P17086); format: cell-based; conditions: for effect on P. mirabilis urease activity (whole cell): potassium phosphate buffer, dose response; for Urease dampening activity: screen of candidate metabolites, * Trending but not statistically significant
T1 construct: it utilizes whole bacterial cells, rather than isolated enzyme preparations; endogenous in cells; host or cells: Proteus mirabilis HI4320, live whole cells
T1 sequence (P17086 whole entry): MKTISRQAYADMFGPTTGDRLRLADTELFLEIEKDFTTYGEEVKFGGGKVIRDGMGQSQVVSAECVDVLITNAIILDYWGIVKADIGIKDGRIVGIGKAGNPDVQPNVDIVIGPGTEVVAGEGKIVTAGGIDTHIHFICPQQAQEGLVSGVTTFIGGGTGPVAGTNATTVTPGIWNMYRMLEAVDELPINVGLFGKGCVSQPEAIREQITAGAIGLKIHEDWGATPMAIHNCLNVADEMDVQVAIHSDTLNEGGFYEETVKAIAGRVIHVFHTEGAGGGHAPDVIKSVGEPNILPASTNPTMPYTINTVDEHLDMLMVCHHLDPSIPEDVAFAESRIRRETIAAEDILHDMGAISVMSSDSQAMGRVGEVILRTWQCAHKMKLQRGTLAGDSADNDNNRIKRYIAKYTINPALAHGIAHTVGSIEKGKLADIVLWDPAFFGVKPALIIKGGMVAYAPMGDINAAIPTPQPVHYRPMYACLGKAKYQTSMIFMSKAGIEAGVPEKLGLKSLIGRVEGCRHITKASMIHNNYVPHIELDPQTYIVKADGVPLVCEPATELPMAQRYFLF
T1 sequence (P17088 whole entry, further chain): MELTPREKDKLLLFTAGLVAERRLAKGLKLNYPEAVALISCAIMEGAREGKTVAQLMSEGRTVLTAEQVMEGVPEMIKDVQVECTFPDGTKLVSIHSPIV
T1 sequence (P17087 whole entry, further chain): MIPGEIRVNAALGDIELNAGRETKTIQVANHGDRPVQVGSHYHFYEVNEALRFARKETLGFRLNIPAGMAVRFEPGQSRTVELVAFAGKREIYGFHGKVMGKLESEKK
Protocol: (§1) Urease activity was measured as described previously in triplicate with at least three biological replicates[21]. Briefly, bacteria were cultured for ~18 h in LB broth, concentrated to an OD600 of 4, washed once in saline, and diluted (1:10 for P. mirabilis and 1:50 for P. stuartii and M. morganii) into candidate dampening metabolites in potassium phosphate buffer or human urine pH7 and supplemented with 500 mM urea and 0.01% phenol red. Bacterial suspensions were distributed into a 96-well plate, incubated at 37 °C with double-orbital shaking in a Synergy H1 plate reader (BioTek), and absorbance (OD562) was measured every 60 seconds for 180 minutes. Isogenic urease mutants (Supplementary Data 1) served as negative controls for P. mirabilis and P. stuartii and a vehicle control served as a negative control for M. morganii.

Jack Bean Urease (JBU) = biological target: T2, Jack Bean Urease (JBU) (Canavalia ensiformis, UniProt P07374); format: biochemical; conditions: 0.1 U JBU, 500 mM urea
T2 construct: purchased Sigma-Aldrich
T2 sequence (P07374 whole entry, looked up): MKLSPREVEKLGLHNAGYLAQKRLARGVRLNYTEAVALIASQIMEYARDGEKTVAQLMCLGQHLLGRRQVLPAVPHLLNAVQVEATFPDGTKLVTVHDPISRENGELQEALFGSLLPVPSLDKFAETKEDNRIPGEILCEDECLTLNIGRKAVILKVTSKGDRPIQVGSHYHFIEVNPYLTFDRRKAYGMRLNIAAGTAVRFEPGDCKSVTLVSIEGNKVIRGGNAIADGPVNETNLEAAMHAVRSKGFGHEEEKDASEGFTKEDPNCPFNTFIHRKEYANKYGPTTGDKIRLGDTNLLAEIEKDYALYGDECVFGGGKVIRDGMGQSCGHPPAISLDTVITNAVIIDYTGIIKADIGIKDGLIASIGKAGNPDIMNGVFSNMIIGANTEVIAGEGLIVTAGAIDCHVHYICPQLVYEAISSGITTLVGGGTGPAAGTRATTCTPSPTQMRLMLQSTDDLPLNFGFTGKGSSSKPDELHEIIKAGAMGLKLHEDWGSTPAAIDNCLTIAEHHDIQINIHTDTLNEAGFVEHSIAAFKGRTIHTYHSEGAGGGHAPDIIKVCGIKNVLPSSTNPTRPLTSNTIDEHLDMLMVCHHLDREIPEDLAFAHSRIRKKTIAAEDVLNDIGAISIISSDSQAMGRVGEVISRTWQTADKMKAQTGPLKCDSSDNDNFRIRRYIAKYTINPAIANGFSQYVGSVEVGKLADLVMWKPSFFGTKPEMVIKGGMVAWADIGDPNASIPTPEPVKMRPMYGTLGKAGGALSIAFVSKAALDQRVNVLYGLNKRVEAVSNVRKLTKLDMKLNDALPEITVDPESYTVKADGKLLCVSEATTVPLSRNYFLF
Protocol: To measure Jack Bean urease activity, the previously described assay was modified such that 0.1 U (1U liberates 1 µmol of ammonia from urea per minute) of JBU (Sigma-Aldrich urease from Canavalia ensiformis) were distributed into a 96-well plate in place of the bacterial suspensions. Acetohydroxamic acid (AHA), was used as a positive control and a vehicle control was used as a negative control. Percent of maximum urease activity was calculated using Area Under the Curve (AUC) relative to untreated bacteria of interest or untreated JBU. Urease activity measurement in MRSA was adapted from a recently published semi quantitative assay (See Supplementary materials for details)[48].
414 Supplementary Figure 13. Microbial metabolites dampen activity of purified Jack Bean
415 Urease (JBU). 0.1 U of JBU (1U liberates 1 µmol of ammonia from urea per minute) was
416 incubated at 37 °C with shaking in urease-dampening metabolites, 500mM urea, and phenol red.
417 A urea analogue, AHA, served as the positive control for inhibition of JBU. Absorbance
418 (OD562) was measured every 60 seconds for 90 minutes, and activity is expressed as percent of
419 maximum activity (% Max Activity) relative to untreated JBU. Graphs show mean±SD for 3
420 independent experiments with 3 technical replicates each. Data were analyzed by two tailed one
421 sample t-test to a hypothetical value of 100% activity. ***P<0.001, **P<0.002, *P<0.033.
(1 picture or pasted object on this page, not shown here)

[2] = test system: P. mirabilis urease operon (ureABC, ureEDF); assay: Real-time quantitative PCR of urease operon; format: cell-based, Proteus mirabilis; conditions: 15-minute incubation, 500 mM urea
Protocol: P. mirabilis was cultured for ~18 h in LB broth and then sub cultured until it reached mid-log growth phase (OD600 0.2-0.5). Cultures were spun down to pellet at 10,000 rcf for 10 minutes and resuspended in saline to a final OD600 of 1.0. Cultures were then diluted 1:10 into dampening metabolites buffered 1:10 in potassium phosphate buffer pH7 and supplemented with 500 mM urea. P. mirabilis in potassium phosphate buffer without urea served as a negative control. Cultures were incubated in potassium phosphate buffer with and without dampening metabolites at 37 °C with shaking for 15 minutes. RNA isolation, cDNA synthesis and RT qPCR were performed as described previously. […] A RNA integrity analysis using agarose gel electrophoresis on extracted RNA was performed for all samples to confirm no change in transcript stability (Supplementary Fig 16A). The data were analyzed according to the Relative Quantification (RQ) method by Pfaffl et al. 2001[54] (See Supplementary Information).
168 Real-time quantitative PCR analysis. The data were analyzed according to the Relative
169 Quantification (RQ) method by Pfaffl et al 2001 (56) in which P. mirabilis potassium phosphate
170 buffer without urea was considered as the ‘Control’ and P. mirabilis in potassium phosphate
171 buffer supplemented with 500mM urea with and without candidate dampening compounds were
172 the ‘Sample.’ The full equation is below.
(E )ΔCPtarget (control−sample)
174 Relative Quantification Ratio = target Equation 2
(Ereference)ΔCPreference (control−sample)
176 In this equation, E refers to the primer efficiency of the target gene (Etarget, urease operon
177 subunits) or the reference gene (Ereference, rpoA), and CP refers to the Cycle Point, or the cycle
178 number at which the signal exceeds the threshold. […]
183 for whole genome sequencing on the Illumina NextSeq2000 platform. Read trimming, and run
184 analytics were performed using Trimmomatic v0.39.0 (62). The processed reads were assembled
185 using spades v3.15.5 (63) wrapped in Unicycler v0.5.0 (64, 65). Read mapping was done using […]

M. morganii urease = assay: Urease activity assay, whole cell M. morganii TA43; format: cell-based, Morganella morganii
Protocol: as §1

P. stuartii urease = assay: Urease activity assay, whole cell P. stuartii BE2467; format: cell-based, Providencia stuartii
Protocol: as §1

UTI MRSA urease = UTI MRSA urease activity assay; format: cell-based, Staphylococcus aureus; conditions: whole cell, urease broth
Protocol: 190 Omega and visualization was carried out using ESPript 3.0 (69), enabling comparison across
191 different clinical isolates. Urease genes, including the full operon from ureA to ureR, were
192 identified and extracted from the prokka annotated genomes. The extracted protein sequences
193 were subjected to sequence alignment using Clustal Omega and visualization was carried out
194 using ESPript 3.0 [8], enabling comparison across different clinical isolates.
195 UTI MRSA urease activity assay. The UTI MRSA urease assay was adapted from a recently-
196 published semi quantitative assay to measure urease activity in bacterial species with low overall
197 activity under standard conditions (50). Dampening metabolites were directly dissolved in urease
198 broth (1 g tryptone (RPI; CAS No. 91079-40-2), 1 g D(+)-glucose (RPI; CAS No. 50-99-7), 2 g
199 potassium phosphate monobasic anhydrous (VWR; Lot: 20C1356567), 5 g sodium chloride
201 of MilliQ water, pH 5.5, sterilized via autoclaving). UTI MRSA strains from overnight cultures
202 were harvested by centrifugation for 5 minutes at 10,000 g, washed with 1 volume of 1X
203 Phosphate Buffered Saline (PBS), and resuspended in urease broth. Bacterial cultures were […]
205 measured at 415 nm, 560 nm, and 600 nm every 20 mins for 24 hours, shaking at 37°C using a
206 BioTek Synergy|H1 microtiter plate reader. Urease activity was calculated by dividing the OD […]

P. mirabilis urease [3] = biological target: T1, P. mirabilis urease; format: cell-based; conditions: for Compound 1 %I alone: kphos
Protocol: To assess the synergistic effects of dampening metabolites when used in combination with each other, P. mirabilis urease activity was measured as described above. Between 4-6 different concentrations for each dampening metabolite were tested both alone and in combination (See Fig. 6a for example). […] To account for variability between experiments, all conditions tested were performed on a single 96-well plate with three technical replicates for each condition. To compare between biologic replicates, percent inhibition relative to untreated P. mirabilis was calculated for each condition using the average area under the curve over 120-180 minutes (so that the positive control activity curve saturated without any increase in the negative control curve).
Statistical analysis was conducted using a one sample T test of the combination index compared to a hypothetical value of 1 (additive effect). […] Therefore, combination indexes were calculated using a desired effect size less than 40% were indicated with an * in Fig. 6b and in Supplementary Data 5.

[4] = biological target: T3, urease of P. mirabilis HI4320 cell free extracts (Proteus mirabilis, UniProt P17086); format: biochemical
T3 construct: 20ul of cell-free extract were distributed into a 96-well plate in place of the whole cell bacterial suspensions; endogenous in cells; host or cells: Proteus mirabilis HI4320, urea-induced; freeze-thaw and sonication lysate, clarified supernatant
T3 sequence (P17088 whole entry): as the sequence (P17088 whole entry, further chain) above
T3 sequence (P17086 whole entry): as the sequence (P17086 whole entry) above
T3 sequence (P17087 whole entry, further chain): as the sequence (P17087 whole entry, further chain) above
Protocol: To measure urease activity of the cell free extracts of P. mirabilis, P. mirabilis was cultured for ~18 h in LB broth and then sub cultured until it reached mid-log growth phase (OD600 0.2-0.5). Cultures were spun down to pellet at 10,000 rcf for 10 minutes and resuspended in saline to a final OD600 of 1.0. Cultures were then diluted 1:10 in potassium phosphate buffer pH7 supplemented with 500 mM urea and incubated at 37 °C with shaking for 1 h to induce its urease enzyme production. The isogenic urease mutant Pm ureF::kan (Supplementary Data 1) served as negative control. Cultures then were spun down to pellet at 10,000 rcf for 10 minutes and resuspended in 2 mL saline. Cultures were subjected to four cycles of freezing in liquid nitrogen and thawing in a 37 °C water bath. Cultures were then probe sonicated (on ice) at 25% amplitude for 10 sec. Sonicated cultures were centrifuged at 18,900 Xg for 5 min and supernatants were transferred to a clean tube and stored on ice. To measure urease activity of cell free extracts, the previously described assay was modified such that 20ul of cell-free extract were distributed into a 96-well plate in place of the whole cell bacterial suspensions. Acetohydroxamic acid (AHA), was used as a positive control. Percent of maximum urease activity was calculated using Area Under the Curve (AUC) relative to untreated cell free extracts of P. mirabilis.

[5] = biological target: T4, urease of P. mirabilis cell free extracts (Proteus mirabilis, UniProt P17086); format: biochemical; conditions: for type of urease inhibition: Michaelis-Menten parameters, Lineweaver-Burke plot
T4 construct: 20ul of cell-free extract were distributed into a 96-well plate in place of the whole cell bacterial suspensions; endogenous in cells; host or cells: Proteus mirabilis HI4320, urea-induced; freeze-thaw and sonication lysate, clarified supernatant
T4 sequence (P17086 whole entry): as the sequence (P17086 whole entry) above
T4 sequence (P17088 whole entry, further chain): as the sequence (P17088 whole entry, further chain) above
T4 sequence (P17087 whole entry, further chain): as the sequence (P17087 whole entry, further chain) above
Protocol: For the kinetic analysis of the urease reaction in the presence of urease dampening metabolites, urease activity assays were repeated with the P. mirabilis cell free extracts. Six different inhibitor concentrations that gave linear rates of reaction over a period of 120 min were tested for their effects on urease activity in the presence of urea concentrations ranging from 0 to 500 mM. Simple linear regression was performed on the absorbance (OD562) over 120 minutes for each condition and plotted as Initial velocity (slope) vs urea concentration. These initial hyperbolic plots were converted to double-reciprocal Lineweaver-Burke plots, and the pattern of inhibition inferred from the point of intersection of the lines. Finally, the Ki for a particular compound was determined by plotting the Km/Vmax ratio (the slope of the Lineweaver-Burke plots) of each line as a function of the inhibitor concentration as described by ref. [49]. The X-intercept corresponded to –Ki.

[6] = Buffering capacity assay (NaOH titration, phenol red); format: physicochemical; conditions: high concentrations of metabolite in potassium phosphate buffer with phenol red
Protocol: Known concentrations of sodium hydroxide were added to each well of a 96 well plate in combination with candidate dampening metabolite of interest buffered 1:10 in potassium phosphate buffer pH7. 0.01% phenol red was added to each well, and absorbance (OD562) was measured in a Synergy H1 plate reader (BioTek).

[7] = highest concentration tested 20mM

Structure (SMILES)	effect on P. mirabilis urease activity (whole cell) (P. mirabilis urease [1])	Urease dampening activity (P. mirabilis urease [1]; [7])	JBU activity (Jack Bean Urease (JBU))	ureE and ureF transcript levels [2]	urease activity in M. morganii (M. morganii urease)	urease activity in P. stuartii (P. stuartii urease)	urease activity in MRSA (UTI MRSA urease)	concentrations required to achieve a significant combination index (P. mirabilis urease [3])	Dampens urease activity (P. mirabilis urease [1]; biosynthetic pathway/functional group screen, highest concentration tested 20mM)	urease activity of cell free P. mirabilis extracts [4]	change of estimated Km on addition of metabolite [5]	change of estimated Vmax on addition of metabolite [5]	type of urease inhibition [5]	buffering capacity: absorbance (OD562) across NaOH concentrations [6]	Compound 1 %I alone (P. mirabilis urease [3]; Compound 1 [] alone 25, assay date 2024 08 07)	Compound 1 %I alone (P. mirabilis urease [3]; Compound 1 [] alone 37.5, assay date 2024 08 09)	Compound 1 %I alone (P. mirabilis urease [3]; Compound 1 [] alone 50, assay date 2024 08 07)
O=C(O)C(=O)Cc1ccccc1 [phenylpyruvate, Sodium phenylpyruvate monohydrate]	reproducibly decreased; also recorded: only modest activity	Yes	did not inhibit; also recorded: no activity	modestly increased	no activity	no activity	most potent urease inhibition	> 50 mM	–	–	–	–	–	–	–	–	–
c1c[nH]cn1 [imidazole, Imidazole]	additional hits	–	inhibited	–	–	–	–	–	Yes	at least partially inhibiting	increase	decrease	mixed inhibitors	consistent reduction in absorbance compared to the control	–	–	–
O=C(O)[C@@H](O)Cc1cnc[nH]1 [L-imidazole lactate, L-imidazolelactic acid]	–	Yes	inhibited	–	–	–	–	–	–	at least partially inhibiting	increase	decrease	mixed inhibitors	consistent reduction in absorbance compared to the control	36.6%	56.9%	58.1%
CC(C)C[C@H](N)C(=O)NCC(=O)O [leucylglycine, L-Leucylglycine hydrate] (H-Leu-Gly-OH)	reproducibly decreased	Yes	inhibited	–	–	–	–	> 50 mM	–	at least partially inhibiting	increase	decrease	mixed inhibitors	–	–	–	–
